In brackets after ≈: the same amount, converted by molar mass. Values belong to the compound of their own block, whether it stands above or below them.
How the values were obtained:
Plasmodium falciparum [1] = assay: Antimalarial activity against Plasmodium falciparum T9-96; type: functional, organism-based
Plasmodium falciparum [2] = assay: Antimalarial activity against Plasmodium falciparum NF54; type: functional, organism-based
Plasmodium falciparum [3] = assay: Antimalarial activity against Plasmodium falciparum K1; type: functional, organism-based
[4] = target: T1, Enoyl-acyl-carrier protein reductase (Plasmodium falciparum, UniProt Q965D5); assay: Inhibition of Plasmodium falciparum Fabl
T1 sequence (Q965D5 whole entry): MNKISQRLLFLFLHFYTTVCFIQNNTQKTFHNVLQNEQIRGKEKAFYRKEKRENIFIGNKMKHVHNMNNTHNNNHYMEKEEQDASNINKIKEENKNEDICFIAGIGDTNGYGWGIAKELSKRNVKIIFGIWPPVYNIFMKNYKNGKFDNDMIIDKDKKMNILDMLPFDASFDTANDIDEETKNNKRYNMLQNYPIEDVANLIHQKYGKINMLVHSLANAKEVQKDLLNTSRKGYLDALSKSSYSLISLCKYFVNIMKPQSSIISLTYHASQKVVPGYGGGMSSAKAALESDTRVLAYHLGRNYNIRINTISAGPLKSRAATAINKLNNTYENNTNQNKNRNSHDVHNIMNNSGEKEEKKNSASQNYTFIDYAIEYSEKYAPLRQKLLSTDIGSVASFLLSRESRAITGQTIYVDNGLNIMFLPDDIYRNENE

Plasmodium falciparum [5] = assay: Antimalarial activity against chloroquine-sensitive Plasmodium falciparum PoW; type: functional, organism-based
Plasmodium falciparum [6] = assay: Antimalarial activity against chloroquine-resistant Plasmodium falciparum Dd2; type: functional, organism-based
Plasmodium falciparum [7] = assay: Antimalarial activity against chloroquine-sensitive Plasmodium falciparum D6; type: functional, organism-based
Plasmodium berghei = assay: Antimalarial activity against Plasmodium berghei infected in mice (Mus musculus) assessed as increase in survival of mice (Mus musculus) at 100 uM/kg; type: functional
Plasmodium falciparum [8] = assay: Antimalarial activity against multidrug-resistant Plasmodium falciparum K1; type: functional, organism-based
Plasmodium falciparum [9] = assay: Antimalarial activity against chloroquine-resistant Plasmodium falciparum; type: functional, organism-based

SMILES: CO[C@@H]1C=C[C@]23c4cc5c(cc4[C@@H](O)N(C[C@@H]2O)[C@H]3C1)OCO5
- IC50 (Plasmodium falciparum [1]): 0.34 µg/mL (≈ 1.07 µM)

- IC50 (Plasmodium falciparum [2]): 3.32 µM
- IC50 (Plasmodium falciparum [3]): 2.13 µM
SMILES: C[C@@H]1O[C@@H](Oc2cc3oc(-c4ccc(O)c(O)c4)cc(=O)c3c(O)c2O)[C@H](O)[C@H](O)[C@H]1O

- IC50 [4]: 588 µM
SMILES: OCC1=C[C@@H]2OCC[C@@H]2[C@@H]1CO

SMILES: CO[C@@H]1C=C[C@@]23c4cc5c(cc4CN(C[C@@H]2O)[C@H]3C1)OCO5 [(+)-HAEMANTHAMINE]
- IC50 (Plasmodium falciparum [1]): 0.7 µg/mL (≈ 2.32 µM)

SMILES: COc1ccc(-c2cc(=O)c3c(O)cc(O)cc3o2)cc1 [ACACETIN]
- IC50 (Plasmodium falciparum [5]): 5.5 µg/mL (≈ 19.3 µM)
- IC50 (Plasmodium falciparum [6]): 12.6 µg/mL (≈ 44.3 µM)

SMILES: COc1ccc(C[C@H]2NC[C@H](O)[C@H]2OC(C)=O)cc1 [ANISOMYCIN]
- IC50 (Plasmodium falciparum [7]): 4.6 µM

SMILES: C[C@@H]1CC[C@H]2[C@@H](C)C(=O)O[C@@H]3O[C@@]4(C)CC[C@@H]1[C@]32OO4 [ARTEMISININ]
- Survival (Plasmodium berghei): 2 days

SMILES: CC[C@@]12CCCN3CC[C@]4(c5ccc(OC)c(O)c5N(C(C)=O)[C@@H]4CC1)[C@H]32 [ASPIDOCARPINE]
- IC50 (Plasmodium falciparum [8]): 0.019 µM

SMILES: COc1ccc(-c2coc3cc(O)ccc3c2=O)cc1O [CALYCOSIN]
- IC50 (Plasmodium falciparum [5]): 4.2 µg/mL (≈ 14.8 µM)
- IC50 (Plasmodium falciparum [6]): 9.8 µg/mL (≈ 34.5 µM)

SMILES: C/C=C/C/C=C/CCC(=O)[C@H]1O[C@H]1C(N)=O [CERULENIN]
- IC50 (Plasmodium falciparum [7]): 10.1 µM

SMILES: CCN(CC)CCCC(C)Nc1ccnc2cc(Cl)ccc12 (centres undefined) [CHLOROQUINE]
- Survival (Plasmodium berghei): 6 days

SMILES: CN1C2=CC(O)=c3ccccc3=NC2c2ccccc21 (centres undefined) [CRYPTOHEPTINE]
- IC50 (Plasmodium falciparum [8]): 0.8 µM

SMILES: Cc1c2ccncc2c(C)c2c1[nH]c1ccccc12 [ELLIPTECINE]
- IC50 (Plasmodium falciparum [8]): 0.073 µM

SMILES: O=C(O)[C@@H]1[C@H](C(=O)O)[C@H]2CC[C@@H]1O2 [ENDOTHALL]
- IC50 (Plasmodium falciparum [7]): 7.8 µM

SMILES: Oc1cccc2c1[nH]c1c(C3=C[C@]4(O)CC/C=C\CCCCN5CC[C@H]3[C@@]3(C[C@H]6/C=C\CCCCN6[C@@H]34)C5)nccc12 [ENT-8-HYDROXYMENZAMINE A]
- Survival (Plasmodium berghei): 9 days

SMILES: O=c1cc(-c2ccc(O)c(O)c2)oc2cc(O[C@@H]3O[C@H](CO)[C@@H](O)[C@H](O)[C@H]3O)cc(O)c12 [GALUTEOLIN]
- IC50 [4]: 22.3 µM

SMILES: O=c1c(-c2ccc(O)cc2)coc2cc(O)cc(O)c12 [GENISTEIN]
- IC50 (Plasmodium falciparum [5]): 2 µg/mL (≈ 7.4 µM)
- IC50 (Plasmodium falciparum [6]): 4.1 µg/mL (≈ 15.2 µM)

SMILES: O[C@@H]1CCCN2CC[C@@H]1O[C@@]13CC[C@@H](OC[C@]45CN6CCCC/C=C\CC[C@](O)(C=C(c7nccc8c7[nH]c7ccccc78)[C@@H]4CC6)[C@H]25)[C@@H](O)CCN1[C@@H]1[C@]2(CN4CCCC/C=C\CC[C@]1(O)C=C(c1nccc5c1[nH]c1ccccc15)[C@@H]2CC4)C3 [NEO-KAULUAMINE]
- Survival (Plasmodium berghei): 9 days

SMILES: COC(=O)[C@]12OC[C@]34[C@H]([C@@H](O)[C@@H]1O)[C@@]1(C)C5=CC(=O)OC5=C[C@@H](C)[C@@H]1C[C@H]3OC(=O)[C@H](OC(C)=O)[C@@H]24 [NEOSERGEOLIDE]
- IC50 (Plasmodium falciparum [8]): 0.002 µM

SMILES: COc1ccc([C@@H]2Oc3cc(O)cc(O)c3C(=O)[C@H]2[C@H]2C(=O)c3c(O)cc(O)cc3O[C@H]2c2ccc(O)cc2)cc1 [SIKOKIANIN B]
- IC50 (Plasmodium falciparum [9]): 0.54 µg/mL (≈ 0.97 µM)

SMILES: COc1ccc([C@H]2Oc3cc(O)cc(O)c3C(=O)[C@@H]2[C@H]2C(=O)c3c(O)cc(O)cc3O[C@@H]2c2ccc(O)cc2)cc1 [SIKOKIANIN C]
- IC50 (Plasmodium falciparum [9]): 0.56 µg/mL (≈ 1.01 µM)

- IC50 (Plasmodium falciparum [2]): 0.0017 µg/mL
- IC50 (Plasmodium falciparum [3]): 0.0015 µg/mL
SMILES: COc1c2c(c(O)c3c4c(c(C)cc13)[C@@H]1O[C@@]3(C(OC)OC)O[C@@H]1[C@@](O[C@H]1C[C@@H](O)[C@@](O)(C(C)=O)[C@H](C)O1)(O4)[C@@]31CO1)C(=O)[C@@H](O)C[C@@H]2O[C@H]1C[C@@](C)(O)[C@H](OC(C)=O)[C@H](C)O1 [TRIOXACARCIN A]

- IC50 (Plasmodium falciparum [2]): 0.0017 µg/mL
- IC50 (Plasmodium falciparum [3]): 0.0015 µg/mL
SMILES: COc1c2c(c(O)c3c4c(c(C)cc13)[C@@H]1O[C@@]3(C(OC)OC)O[C@@H]1[C@@](O[C@H]1C[C@@H](O)[C@@](O)(C(C)=O)[C@H](C)O1)(O4)[C@@]31CO1)C(=O)[C@@H](O)C[C@@H]2O[C@H]1C[C@@](C)(O)[C@H](O)[C@H](C)O1 [TRIOXACARCIN D]

Reference: ChEMBL document CHEMBL1177693, “Antimalarials from nature” (Bioorg Med Chem, 2009)
